Measured values reported in ChEMBL document CHEMBL1139848, “Structure-guided optimization of estrogen receptor binding affinity and antagonist potency of pyrazolopyrimidines with basic side chains” (J Med Chem, 2007).

How the values were obtained:
Estrogen receptor [1] = biological target: T1, Estrogen receptor (Homo sapiens, UniProt P03372); experiment: Binding affinity to ERalpha
T1 sequence (P03372 whole entry): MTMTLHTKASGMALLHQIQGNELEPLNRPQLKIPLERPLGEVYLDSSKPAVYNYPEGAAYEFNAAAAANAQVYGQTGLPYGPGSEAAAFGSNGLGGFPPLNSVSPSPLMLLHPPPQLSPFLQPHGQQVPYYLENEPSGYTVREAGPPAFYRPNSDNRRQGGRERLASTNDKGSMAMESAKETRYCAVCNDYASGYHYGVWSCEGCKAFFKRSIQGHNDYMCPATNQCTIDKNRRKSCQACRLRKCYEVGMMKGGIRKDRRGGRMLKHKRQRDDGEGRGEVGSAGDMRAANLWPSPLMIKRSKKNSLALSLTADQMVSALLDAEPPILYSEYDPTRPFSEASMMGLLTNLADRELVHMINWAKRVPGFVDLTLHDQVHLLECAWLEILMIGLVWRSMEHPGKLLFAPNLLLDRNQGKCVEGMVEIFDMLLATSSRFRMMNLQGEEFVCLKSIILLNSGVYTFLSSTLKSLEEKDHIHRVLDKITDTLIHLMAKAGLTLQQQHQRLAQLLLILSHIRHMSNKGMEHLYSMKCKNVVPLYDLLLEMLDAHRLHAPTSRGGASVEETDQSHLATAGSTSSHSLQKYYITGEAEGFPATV

Estrogen receptor beta [2] = biological target: T2, Estrogen receptor beta (Homo sapiens, UniProt Q92731); experiment: Binding affinity to ERbeta
Estrogen receptor [3] = biological target: T1, Estrogen receptor; experiment: Antagonist potency at ERalpha expressed in human HEC1 cells by luciferase reporter gene assay; format: functional, cell-based, HEC-1
Estrogen receptor beta [4] = biological target: T2, Estrogen receptor beta; experiment: Antagonist potency at ERbeta expressed in human HEC1 cells by luciferase reporter gene assay; format: functional, cell-based, HEC-1

T2 sequence (Q92731 whole entry): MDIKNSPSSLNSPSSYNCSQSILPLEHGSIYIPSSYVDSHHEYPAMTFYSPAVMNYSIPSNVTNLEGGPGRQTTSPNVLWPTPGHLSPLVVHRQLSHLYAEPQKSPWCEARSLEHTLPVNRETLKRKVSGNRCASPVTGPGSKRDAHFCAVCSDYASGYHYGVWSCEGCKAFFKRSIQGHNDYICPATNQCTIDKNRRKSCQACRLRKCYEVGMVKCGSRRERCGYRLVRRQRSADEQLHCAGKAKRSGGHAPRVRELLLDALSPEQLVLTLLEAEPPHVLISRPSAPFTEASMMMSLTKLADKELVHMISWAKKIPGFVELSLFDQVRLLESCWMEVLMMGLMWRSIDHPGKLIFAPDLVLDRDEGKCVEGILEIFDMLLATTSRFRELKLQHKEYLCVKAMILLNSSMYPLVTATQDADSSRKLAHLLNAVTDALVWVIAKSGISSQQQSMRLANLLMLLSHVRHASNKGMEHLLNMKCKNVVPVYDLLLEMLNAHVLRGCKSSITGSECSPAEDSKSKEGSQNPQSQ

Row | Structure (SMILES) | Ki (Estrogen receptor [1]) | Ki (Estrogen receptor beta [2]) | IC50 (Estrogen receptor [3]) | IC50 (Estrogen receptor beta [4])
1 | Oc1ccc(-c2nn3c(C(F)(F)F)cc(C(F)(F)F)nc3c2-c2ccccc2)cc1 | 51 nM | 122 nM | – | –
2 | CN(C)CCOc1ccc(-c2c(-c3ccc(O)cc3)nn3c(C(F)(F)F)cc(C(F)(F)F)nc23)cc1 | 47 nM | 178 nM | 1000 nM | 250 nM
3 | Oc1ccc(-c2c(-c3ccc(OCCN4CCCCC4)cc3)nn3c(C(F)(F)F)cc(C(F)(F)F)nc23)cc1 | 266 nM | 192 nM | – | –
4 | Oc1ccc(-c2c(-c3ccccc3)nn3c(C(F)(F)F)cc(C(F)(F)F)nc23)cc1 | 2220 nM | 139 nM | – | –
5 | Oc1ccc(-c2nn3cc(O)cnc3c2-c2ccc(O)cc2)cc1 | 3330 nM | 1520 nM | – | –
6 | CN(C)CCOc1ccc(-c2nn3c(C(F)(F)F)cc(C(F)(F)F)nc3c2-c2ccc(O)cc2)cc1 | 408 nM | 156 nM | – | –
7 | Oc1ccc(-c2nn3c(C(F)(F)F)cc(C(F)(F)F)nc3c2-c2ccc(OCCN3CCCCC3)cc2)cc1 | 7 nM | 71 nM | 90 nM | 40 nM
8 | Oc1ccc(-c2nn3c(C(F)(F)F)cc(C(F)(F)F)nc3c2-c2ccc(O)cc2)cc1 | 26 nM | 48 nM | 6000 nM | 600 nM
